In PMC12677653, “Inhibition of Tumor Lipogenesis and Growth by Peptide‐Based Targeting of SREBP Activation” (Advanced Science, 2025):
Each block holds one molecule with its values, some of them ahead of it. Residues, ends and D or L forms follow the SMILES beside them.

Tests used:
Huh7 cells = experiment: Cellular peptide uptake, western blot; type: in vitro ADME, human; conditions: biotin-labeled peptide 15 μM, 30 min, TAT versus TAT-LOF sequence
Method: d) Huh7 cells were incubated for 30 min with biotin-labeled Insig1/2 loop1 peptide (15 μM), either with TAT or TAT loss of function (TAT-LOF) sequence, with subsequent western blot analysis of cellular peptide uptake.

tumor cell apoptosis = experiment: TUNEL assay of tumor tissues; type: in vivo, BALB/c athymic nude mice; conditions: cryosections of Huh7 tumors, n = 4; peptide given as LNP 10 mg/kg iv; lenvatinib mesylate 2 mg/kg oral
Method: (§1) Representative micrographs are shown (scale bar: 20 µm). b,c) Cryosections of mouse tumor tissues were prepared for histological analysis. (b) Lipid accumulation was assessed by Oil Red O staining. Representative micrographs are shown (scale bar: 20 µm). (c) Apoptotic cells were detected by TUNEL assay. Representative micrographs are shown (scale bar: 20 µm). d,e) Quantitative analysis of (d) apoptotic areas (TUNEL‐positive regions) and (e) lipid droplet counts (Oil Red O‐positive particles) was performed. Data represent the mean ± SD (n = 4). Statistical significance was determined by one‐way analysis of variance (ANOVA). ** p < 0.01, **** p < 0.0001, ns, no significance.
Mouse tumor tissues were sectioned at 5 µm thickness. Apoptotic cells were counted using the colorimetric TUNEL System (Beyotime, C1091) according to the manufacturer's instructions. The total numbers of apoptotic cells were counted in six high‐power fields and presented as an average number of apoptotic cells per high‐power fields.

[1] = tested on: lipid accumulation in tumor tissues; experiment: Oil Red O staining of tumor tissues; type: in vivo, BALB/c athymic nude mice; conditions: cryosections of Huh7 tumors, n = 4; peptide given as LNP 10 mg/kg iv; lenvatinib mesylate 2 mg/kg oral
Method: as §1
Cryosections 6–8 µm in thickness were air‐dried and fixed with formaldehyde for 5–10 min. Then, the slides were placed in absolute propylene glycol for 2–5 min and stained with 0.5% Oil red O dye. After staining, the slides were rinsed, counterstained with Mayer's hematoxylin for 1 min, and mounted in glycerin.

[2] = tested on: Insig1 pS207/Insig2 pS151, SREBP1, Ki67; experiment: IHC analysis of mouse tumors derived from Huh7 cells; type: in vivo, BALB/c athymic nude mice; conditions: peptide given as LNP@Insig1/2 loop 1 peptide 10 mg/kg iv, lenvatinib mesylate 2 mg/kg oral
Method: as §1
As described previously,^[ [39] ^] IHC staining was performed using the Vectastain ABC kit (Vector Laboratories) according to the manufacturer's instructions. Sections of paraffin‐embedded xenograft tumors were stained with antibodies against Ki67, SREBP1, Insig1 pS207/Insig2 pS151, and nonspecific IgG was used as a negative control. Paraffin‐embedded human liver tumor sections were stained with antibodies against Ki67, SREBP1, Insig1 pS207/Insig2 pS151, with nonspecific IgG as a negative control. The tissue sections were quantitatively scored according to the percentage of positive cells and staining intensity. […] The intensity of staining was rated on a scale of 0 to 3: 0, negative; 1, weak; 2, moderate; and 3, strong. The study then combined the proportion and intensity scores to obtain a total score (range, 0–8).

[3] = molecular target: T1, S90-phosphorylated GST-PCK1 (human, UniProt P35558 1-622, phosphoserine at 90; biotin (G-MM-IGT Biotinylation kit)); experiment: BLI; phosphorylated S90
T1 chain: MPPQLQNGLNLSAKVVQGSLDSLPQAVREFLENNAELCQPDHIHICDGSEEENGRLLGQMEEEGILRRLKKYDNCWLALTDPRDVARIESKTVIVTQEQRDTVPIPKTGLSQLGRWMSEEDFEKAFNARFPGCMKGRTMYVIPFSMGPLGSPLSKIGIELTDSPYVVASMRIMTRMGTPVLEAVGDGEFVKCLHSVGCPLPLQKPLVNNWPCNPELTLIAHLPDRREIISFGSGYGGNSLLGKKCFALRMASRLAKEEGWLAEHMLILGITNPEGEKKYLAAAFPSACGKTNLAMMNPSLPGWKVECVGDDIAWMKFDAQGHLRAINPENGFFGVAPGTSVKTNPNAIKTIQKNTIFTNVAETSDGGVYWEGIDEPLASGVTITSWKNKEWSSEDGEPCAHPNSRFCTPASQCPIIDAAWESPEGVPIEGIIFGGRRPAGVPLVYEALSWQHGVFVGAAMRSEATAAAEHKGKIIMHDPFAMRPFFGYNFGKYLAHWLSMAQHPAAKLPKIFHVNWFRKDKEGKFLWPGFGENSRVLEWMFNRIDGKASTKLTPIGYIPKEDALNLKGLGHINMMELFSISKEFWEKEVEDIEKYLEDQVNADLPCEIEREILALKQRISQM

WT GST-PCK1 = molecular target: T2, WT GST-PCK1 (human, UniProt P35558 1-622, biotin (G-MM-IGT Biotinylation kit)); experiment: BLI
T2 chain: T1 chain

Molecule: CC[C@H](C)[C@H](NC(=O)[C@H](CS)NC(=O)[C@@H]1CCCN1C(=O)[C@H](Cc1ccc(O)cc1)NC(=O)[C@H](CC(C)C)NC(=O)CCCC[C@@H]1SC[C@@H]2NC(=O)N[C@@H]21)C(=O)N[C@@H](CC(=O)O)C(=O)N[C@@H](CO)C(=O)N[C@@H](Cc1c[nH]cn1)C(=O)N[C@@H](CC(C)C)C(=O)NCC(=O)N[C@@H](CCC(=O)O)C(=O)N1CCC[C@H]1C(=O)N[C@@H](Cc1c[nH]cn1)C(=O)N[C@@H](CCCCN)C(=O)N[C@@H](Cc1ccccc1)C(=O)N[C@@H](CCCCN)C(=O)N[C@@H](CCCNC(=N)N)C(=O)N[C@@H](CCC(=O)O)C(=O)N[C@@H](C)C(=O)N[C@@H](C)C(=O)N[C@@H](CCC(=O)O)C(=O)N[C@@H](C)C(=O)N[C@@H](C)C(=O)N[C@@H](CCC(N)=O)C(=O)N[C@@H](C)C(=O)N[C@@H](C)C(=O)N[C@@H](CCC(=O)O)C(=O)O [Biotin‐peptide‐TAT LOF] (HELM PEPTIDE1{[O=C1N[C@H]2[C@H](CS[C@H]2CCCCC(=O)[*:2])N1].L.Y.P.C.I.D.S.H.L.G.E.P.H.K.F.K.R.E.A.A.E.A.A.Q.A.A.E}$$$$V2.0)
peptide accumulation in tumor cells in vitro (Huh7 cells): substantially reduced peptide accumulation

Molecule: COc1cc2nccc(Oc3ccc(NC(=O)NC4CC4)c(Cl)c3)c2cc1C(N)=O [lenvatinib, reference compound]
cell apoptosis in tumor tissues (TUNEL) (tumor cell apoptosis): induced cell apoptosis in tumor tissues
lipid accumulation in tumor tissues (Oil Red O) [1]: reductions were also observed
Insig1 S207/Insig2 S151 phosphorylation in tumors [2]: reductions were also observed
Ki67 expression in tumors [2]: reductions were also observed
SREBP1 expression and nuclear accumulation in tumors [2]: reductions were also observed

Kd [3]: 10.5 µM
Kd (WT GST-PCK1): 36.8 µM
Molecule: LYPCIDSHLGEPHKFKRE [Insig1/2 loop 1 peptide (143-LYPCIDSHLGEPHKFKRE-160)]
